In patent publication US12661410B2, “Compounds for targeted degradation of RET” (C4 Therapeutics, Inc., priority 2020, dated 2026):
Positions count from the first letter of the chain named. Where two headings read alike, the source gives them in different places.

Legend:
RET(KD: 658-1114 G810R) = target: T1, RET(KD: 658-1114 G810R) (Homo sapiens, UniProt P07949, G810R); assay: HiBiT-Degradation, RET G810R degradation assay (Nano-Glo HiBiT Lytic), 293T.165 cells; assay type: cell-based; conditions: for Emax / DC50: 6.0 hours
T1 construct: 658-1114; expressed in transfected cells; host or cells: 293T.165 (293T cells, generated in-house)
T1 sequence (P07949 658-1114 G810R): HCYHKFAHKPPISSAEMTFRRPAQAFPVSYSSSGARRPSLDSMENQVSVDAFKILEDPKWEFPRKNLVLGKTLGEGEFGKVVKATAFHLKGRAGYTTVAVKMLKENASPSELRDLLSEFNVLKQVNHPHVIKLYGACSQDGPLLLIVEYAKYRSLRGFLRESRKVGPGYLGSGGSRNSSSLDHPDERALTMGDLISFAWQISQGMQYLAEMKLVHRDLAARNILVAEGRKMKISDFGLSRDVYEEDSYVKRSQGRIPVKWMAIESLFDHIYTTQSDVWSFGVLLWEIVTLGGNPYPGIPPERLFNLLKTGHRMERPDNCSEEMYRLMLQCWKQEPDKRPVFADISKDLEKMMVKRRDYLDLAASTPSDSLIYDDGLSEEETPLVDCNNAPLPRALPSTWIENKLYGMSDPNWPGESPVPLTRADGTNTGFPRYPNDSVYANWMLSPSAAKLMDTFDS
Outline: (§1)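 Cells were plated and dosed with an 11-point half-log series (highest 10 μM) in duplicate. After 6 hours they were lysed with HiBiT lytic detection reagent and luminescence measured. DC50 and percent remaining protein (Emax) came from the dose-response curves.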

RET (658-1114) = target: T2, RET (658-1114) (Homo sapiens, UniProt P07949); assay: HiBiT-Degradation, RET wild-type degradation assay (Nano-Glo HiBiT Lytic), 293T.144 cells; assay type: cell-based; conditions: for Emax / DC50: 6.0 hours
T2 construct: 658-1114; expressed in transfected cells; host or cells: 293T.144 (293T cells, generated in-house)
T2 sequence (P07949 658-1114): T1 sequence (P07949 658-1114 G810R) with R153G
Outline: as §1

[1] = % remaining protein, read-out: 293T.165 RET(KD: 658-1114 G810R) 6.0 hours (Emax)
[2] = half-maximal degradation concentration, read-out: 293T.165 RET(KD: 658-1114 G810R) 6.0 hours (DC50)
[3] = % remaining protein, read-out: 293T.144 RET (658-1114) 6.0 hours (Emax)
[4] = half-maximal degradation concentration, read-out: 293T.144 RET (658-1114) 6.0 hours (DC50)
[5] = HiBiT-Degradation, read-out: 293T.165 RET(KD: 658-1114 G810R) 6.0 hours (DC50)
[6] = HiBiT-Degradation, read-out: 293T.144 RET (658-1114) 6.0 hours (DC50)
[7] = HiBiT-Degradation, read-out: 293T.144 RET (658-1114) 6.0 hours (Emax)
[8] = RET G810R, read-out: HiBiT-Degradation 293T.165 RET(KD: 658-1114 G810R) 6.0 hours (DC50)
[9] = RET G810R, read-out: HiBiT-Degradation 293T.165 RET(KD: 658-1114 G810R) 6.0 hours (Emax)
[10] = RET wild-type, read-out: HiBiT-Degradation 293T.144 RET (658-1114) 6.0 hours (DC50)
[11] = RET wild-type, read-out: HiBiT-Degradation 293T.144 RET (658-1114) 6.0 hours (Emax)

SMILES | 293T.165 RET(KD: 658-1114 G810R) 6.0 hours (IP) [nM] (RET(KD: 658-1114 G810R)) | Emax (RET(KD: 658-1114 G810R); [1]) [%] | DC50 (RET(KD: 658-1114 G810R); [2]) [nM] | 293T.144 RET (658-1114) 6.0 hours (IP) [nM] (RET (658-1114)) | Emax (RET (658-1114); [3]) [%] | DC50 (RET (658-1114); [4]) [nM] | 293T.165 RET(KD: 658-1114 G810R) 6.0 hours (Emax) (RET(KD: 658-1114 G810R); HiBiT-Degradation) | 293T.165 RET(KD: 658-1114 G810R) 6.0 hours (IP) [nM] (RET(KD: 658-1114 G810R); HiBiT-Degradation) | DC50 (RET(KD: 658-1114 G810R); [5]) [nM] | 293T.144 RET (658-1114) 6.0 hours (IP) [nM] (RET (658-1114); HiBiT-Degradation) | DC50 (RET (658-1114); [6]) [nM] | Emax (RET (658-1114); [7]) [%] | HiBiT-Degradation 293T.165 RET(KD: 658-1114 G810R) 6.0 hours (IP) [nM] (RET(KD: 658-1114 G810R); RET G810R) | DC50 (RET(KD: 658-1114 G810R); [8]) [nM] | Emax (RET(KD: 658-1114 G810R); [9]) [%] | HiBiT-Degradation 293T.144 RET (658-1114) 6.0 hours (IP) [nM] (RET (658-1114); RET wild-type) | DC50 (RET (658-1114); [10]) [nM] | Emax (RET (658-1114); [11]) [%]
N#Cc1cnn2cc(-c3cnn(C4CCN(C(=O)CN5CCC(c6ccc(NC7CCC(=O)NC7=O)cc6F)CC5)CC4)c3)nc(-c3ccc(N4CCC(Cc5ccccn5)CC4)nc3)c12 (centres unmarked) [Compound 72, 6-[1-[1-[2-[4-[4-[(2,6-dioxo-3-piperidyl)amino]-2-fluoro-phenyl]-1-piperidyl]acetyl]-4-piperidyl]pyrazol-4-yl]-4-[6-[4-(2-pyridylmethyl)-1-piperidyl]-3-pyridyl]pyrazolo[1,5-a]pyrazine-3-carbonitrile] |  | < 50 | < 50 |  |  |  |  |  |  |  |  |  | ++++ (< 50 nM = ++++) | < 50 | < 50 | ++++ (< 50 nM = ++++) | < 50 | < 30
N#Cc1cnn2cc(-c3cnn(C4CCN(C(=O)CC5(O)CCN(c6ccc(NC7CCC(=O)NC7=O)cc6F)CC5)CC4)c3)nc(-c3ccc(N4CCN(C(=O)C5CCC5)CC4)nc3)c12 (centres unmarked) [Compound 112, 4-[6-[4-(cyclobutanecarbonyl)piperazin-1-yl]-3-pyridyl]-6-[1-[1-[2-[1-[4-[(2,6-dioxo-3-piperidyl)amino]-2-fluoro-phenyl]-4-hydroxy-4-piperidyl]acetyl]-4-piperidyl]pyrazol-4-yl]pyrazolo[1,5-a]pyrazine-3-carbonitrile] | ++++ (<50 nM = ++++) | < 50 | < 50 | ++++ (<50 nM = ++++) | < 30 | < 50 |  |  |  |  |  |  |  |  |  |  |  | 
CCC1(C(=O)NC(C)C)CCN(c2ccc(-c3cc(-c4cnn([C@H]5CC[C@@H](N6CCC(c7ccc(NC8CCC(=O)NC8=O)cc7F)CC6)CC5)c4)cn4ncc(C#N)c34)cn2)CC1 (some centres unmarked) [Compound 88, 1-(5-(3-cyano-6-(1-((1s, 4s)-4-(4-(4-((2,6-dioxopiperidin-3-yl)amino)-2-fluorophenyl)piperidin-1-yl)cyclohexyl)-1H-pyrazol-4-yl)pyrazolo[1,5-a]pyridin-4-yl)pyridin-2-yl)-4-ethyl-N-isopropylpiperidine-4-carboxamide] |  | < 50 | < 1000 |  |  |  |  |  |  |  |  |  | ++++ (< 50 nM = ++++) | < 1000 | < 50 | ++++ (< 50 nM = ++++) | < 50 | < 30
CCC1(C(=O)NC(C)C)CCN(c2ccc(-c3cc(-c4cnn(C5CCN(C(=O)CN6CCN(c7ccc(NC8CCC(=O)NC8=O)cc7F)CC6)CC5)c4)cn4ncc(C#N)c34)cn2)CC1 (centres unmarked) [Compound 66, 1-[5-[3-cyano-6-[1-[1-[2-[4-[4-[(2,6-dioxo-3-piperidyl)amino]-2-fluoro-phenyl]piperazin-1-yl]acetyl]-4-piperidyl]pyrazol-4-yl]pyrazolo[1,5-a]pyridin-4-yl]-2-pyridyl]-4-ethyl-N-isopropyl-piperidine-4-carboxamide] |  | < 30 | < 50 |  |  |  | ++++ (< 30% = ++++) | ++++ (< 50 nM = ++++) | < 50 | ++++ (< 50 nM = ++++) | < 50 | < 30 |  |  |  |  |  | 

The next lines start with the values.

293T.165 RET(KD: 658-1114 G810R) 6.0 hours (IP) [nM] (RET(KD: 658-1114 G810R)) | Emax (RET(KD: 658-1114 G810R); [1]) [%] | DC50 (RET(KD: 658-1114 G810R); [2]) [nM] | 293T.144 RET (658-1114) 6.0 hours (IP) [nM] (RET (658-1114)) | Emax (RET (658-1114); [3]) [%] | DC50 (RET (658-1114); [4]) [nM] | 293T.165 RET(KD: 658-1114 G810R) 6.0 hours (Emax) (RET(KD: 658-1114 G810R); HiBiT-Degradation) | 293T.165 RET(KD: 658-1114 G810R) 6.0 hours (IP) [nM] (RET(KD: 658-1114 G810R); HiBiT-Degradation) | DC50 (RET(KD: 658-1114 G810R); [5]) [nM] | 293T.144 RET (658-1114) 6.0 hours (IP) [nM] (RET (658-1114); HiBiT-Degradation) | DC50 (RET (658-1114); [6]) [nM] | Emax (RET (658-1114); [7]) [%] | HiBiT-Degradation 293T.165 RET(KD: 658-1114 G810R) 6.0 hours (IP) [nM] (RET(KD: 658-1114 G810R); RET G810R) | DC50 (RET(KD: 658-1114 G810R); [8]) [nM] | Emax (RET(KD: 658-1114 G810R); [9]) [%] | HiBiT-Degradation 293T.144 RET (658-1114) 6.0 hours (IP) [nM] (RET (658-1114); RET wild-type) | DC50 (RET (658-1114); [10]) [nM] | Emax (RET (658-1114); [11]) [%] | SMILES
++++ (<50 nM = ++++) | < 30 | < 50 | ++++ (<50 nM = ++++) | < 30 | < 50 |  |  |  |  |  |  |  |  |  |  |  |  | CCC1(C(=O)NC[C@H]2C[C@H](F)C2)CCN(c2ccc(-c3nc(-c4cnn([C@H]5CC[C@H](N6CCN(c7ccc(NC8CCC(=O)NC8=O)cc7F)CC6)CC5)c4)cn4ncc(C#N)c34)cn2)CC1 (some centres unmarked) [Compound 207, 1-[5-[3-cyano-6-[1-[4-[4-[4-[(2,6-dioxo-3-piperidyl)amino]-2-fluoro-phenyl]piperazin-1-yl]cyclohexyl]pyrazol-4-yl]pyrazolo[1,5-a]pyrazin-4-yl]-2-pyridyl]-4-ethyl-N-[(3-fluorocyclobutyl)methyl]piperidine-4-carboxamide]
++++ (<50 nM = ++++) | < 30 | < 50 | ++++ (<50 nM = ++++) | < 30 | < 50 |  |  |  |  |  |  |  |  |  |  |  |  | CCC1(C(=O)NC2CCC2)CCN(c2ccc(-c3nc(-c4cnn([C@H]5CC[C@H](N6CCN(c7cc(OC)c(N[C@H]8CCC(=O)NC8=O)cc7F)CC6)CC5)c4)cn4ncc(C#N)c34)cn2)CC1 (single isomer, unassigned) [Compound 134]
 | < 50 | < 100 |  |  |  | +++ (<50% = +++) | ++++ (< 50 nM = ++++) | < 100 | ++++ (< 50 nM = ++++) | < 50 | < 30 |  |  |  |  |  |  | N#Cc1cnn2cc(-c3cnn(C4CCN(C(=O)CN5CCC(c6ccc(NC7CCC(=O)NC7=O)cc6F)CC5)CC4)c3)cc(-c3ccc(N4CCC(Nc5ccccc5)CC4)nc3)c12 (centres unmarked) [Compound 46, 4-[6-(4-anilino-1-piperidyl)-3-pyridyl]-6-[1-[1-[2-[4-[4-[(2,6-dioxo-3-piperidyl)amino]-2-fluoro-phenyl]-1-piperidyl]acetyl]-4-piperidyl]pyrazol-4-yl]pyrazolo[1,5-a]pyridine-3-carbonitrile]
++++ (<50 nM = ++++) | < 30 | < 50 | ++++ (<50 nM = ++++) | < 30 | < 50 |  |  |  |  |  |  |  |  |  |  |  |  | N#Cc1cnn2cc(-c3cnn(C4CCN(C(=O)CC5(O)CCN(c6ccc(NC7CCC(=O)NC7=O)cc6F)CC5)CC4)c3)nc(-c3ccc(N4CCC(Oc5ccccn5)CC4)nc3)c12 (centres unmarked) [Compound 109, 6-[1-[1-[2-[1-[4-[(2,6-dioxo-3-piperidyl)amino]-2-fluoro-phenyl]-4-hydroxy-4-piperidyl]acetyl]-4-piperidyl]pyrazol-4-yl]-4-[6-[4-(2-pyridyloxy)-1-piperidyl]-3-pyridyl]pyrazolo[1,5-a]pyrazine-3-carbonitrile]
+++ (<100 nM = +++) | < 50 | < 100 | ++++ (<50 nM = ++++) | < 30 | < 50 |  |  |  |  |  |  |  |  |  |  |  |  | CCC1(C(=O)NC(C)C)CCN(c2ccc(-c3nc(-c4cnn(C5CCN(C(=O)CC6(O)CCN(c7ccc(NC8CCC(=O)NC8=O)cc7C(F)F)CC6)CC5)c4)cn4ncc(C#N)c34)cn2)CC1 (centres unmarked) [Compound 96, 1-[5-[3-cyano-6-[1-[1-[2-[1-[2-(difluoromethyl)-4-[(2,6-dioxo-3-piperidyl)amino]phenyl]-4-hydroxy-4-piperidyl]acetyl]-4-piperidyl]pyrazol-4-yl]pyrazolo[1,5-a]pyrazin-4-yl]-2-pyridyl]-4-ethyl-N-isopropyl-piperidine-4-carboxamide]
